Here are results for seven compounds from the NIST ThermoML archive (doi:10.1016/j.jct.2007.05.016).

Data set [1] can be described thus: xn = mol fraction of the nth substance listed. Particulars: 101 kPa, Liquid, x1 = 1; for speed of sound: Sing-around technique in a fixed-path interferometer.
For data set [2] the following is noted: 101 kPa, Liquid; for speed of sound: Sing-around technique in a fixed-path interferometer.

Several values for one entry are separate records, joined by “and”; a condition that tells them apart may be missing. Identical values can stand only once. ± gives the expanded uncertainty stated by the source.

In the case of `CCCCO` [butan-1-ol] + CCCCCCCCCC, the speed of sound is given as 1240.5 ± 1.2 m/s in data set [1] (298.15 K), 1226.5 ± 1.2 m/s in data set [1] (303.15 K) and 1209.8 ± 1.2 m/s in data set [1] (308.15 K). Moreover, the mass density is recorded as 805.907 ± 0.77 kg/m3 in data set [1] (298.15 K), 803.155 ± 0.78 kg/m3 in data set [1] (303.15 K) and 799.249 ± 0.78 kg/m3 in data set [1] (308.15 K). In addition, the viscosity in data set [1] (298.15 K) worked out at 2.573 ± 0.032 mPa·s.

For `CCCCCCCCCC` [decane], in data set [2] (298.15 K), the mass density worked out at 726.806 ± 0.93 kg/m3, the viscosity is given as 0.852 ± 0.012 mPa·s and the speed of sound is on record as 1234.8 ± 1.2 m/s. In addition, in data set [2] (303.15 K), the mass density came to 723.042 ± 0.94 kg/m3 and the speed of sound worked out at 1215.2 ± 1.2 m/s. Also, in data set [2] (308.15 K), the mass density amounted to 719.23 ± 0.95 kg/m3 and the speed of sound is listed as 1195.6 ± 1.2 m/s.

For `CCCCO` [butan-1-ol], the mass density in data set [2] (298.15 K) is on record as 805.907 ± 0.77 kg/m3; in data set [2] (303.15 K), 803.155 ± 0.78 kg/m3; in data set [2] (308.15 K) it was 799.249 ± 0.78 kg/m3. In data set [2] (298.15 K), the viscosity was 2.573 ± 0.032 mPa·s. The speed of sound was 1240.5 ± 1.2 m/s and 1240.4 ± 1.2 m/s in data set [2] (298.15 K); 1226.5 ± 1.2 m/s in data set [2] (303.15 K); 1209.8 ± 1.2 m/s in data set [2] (308.15 K).

Consider `CCCCO` [butan-1-ol] + CCCCCC, for which, in data set [1] (298.15 K), the speed of sound was determined as 1240.5 ± 1.2 m/s, the mass density is on record as 805.907 ± 0.77 kg/m3 and the viscosity is given as 2.573 ± 0.032 mPa·s. In data set [1] (303.15 K), the speed of sound is 1226.5 ± 1.2 m/s and the mass density is 803.155 ± 0.78 kg/m3. Also, in data set [1] (308.15 K), the speed of sound is on record as 1209.8 ± 1.2 m/s and the mass density is recorded as 799.249 ± 0.78 kg/m3.

As for `CCCCCC` [hexane], in data set [2] (298.15 K), the mass density is on record as 655.072 ± 1.1 kg/m3, the viscosity is 0.313 ± 0.008 mPa·s and the speed of sound worked out at 1077.8 ± 1.2 m/s. Besides, in data set [2] (303.15 K), the mass density is 650.369 ± 1.1 kg/m3 and the speed of sound was 1055.2 ± 1.1 m/s. For the same compound, in data set [2] (308.15 K), the mass density was 645.767 ± 1.1 kg/m3 and the speed of sound is given as 1032.9 ± 1.1 m/s.

For `CCCCO` [butan-1-ol] + CCCCCCCC, in data set [1] (298.15 K), the speed of sound is 1240.4 ± 1.2 m/s, the mass density came to 805.907 ± 0.77 kg/m3 and the viscosity is reported as 2.573 ± 0.032 mPa·s. Further, in data set [1] (303.15 K), the speed of sound turned out to be 1226.5 ± 1.2 m/s and the mass density turned out to be 803.155 ± 0.78 kg/m3. In data set [1] (308.15 K), the speed of sound was 1209.8 ± 1.2 m/s and the mass density was found to be 799.249 ± 0.78 kg/m3.

For `CCCCCCCC` [octane], the mass density in data set [2] (298.15 K) was 698.58 ± 0.99 kg/m3; in data set [2] (303.15 K) it was 694.497 ± 1 kg/m3; in data set [2] (308.15 K) it was 690.416 ± 1 kg/m3. Moreover, in data set [2] (298.15 K), the viscosity came out at 0.518 ± 0.009 mPa·s. For the same compound, the speed of sound in data set [2] (298.15 K) worked out at 1172.7 ± 1.2 m/s; in data set [2] (303.15 K), 1152.1 ± 1.2 m/s; in data set [2] (308.15 K), 1131.7 ± 1.2 m/s.
